In US8022072B2, “Azolylmethylidenehydrazine derivative and use thereof” (Kaken Pharmaceutical Co., Ltd., priority 2007, dated 2011):
≈ marks a conversion by molar mass, not a printed value.

Experiments:
[1] = tested on: Trichophyton mentagrophytes KD-04; test: Antifungal activity evaluation test, MIC, Trichophyton mentagrophytes KD-04; format: cell-based; settings: KD04, 168 h, Sabouraud Dextrose Broth, 30° C., 7 days, visual, read-out: MIC T. men. KD-04
Method: (§1) The minimum inhibitory concentration (MIC) for Trichophyton mentagrophytes, Trichophyton rubrum, and Malassezia furfur was measured according to the following procedure. • Test compound solution: A test compound was dissolved in dimethyl sulfoxide (DMSO) at a concentration of 5 mg/mL as a stock solution. […] Then, as a test medium, a fungal solution of Trichophyton species was 100-fold diluted with Sabouraud Dextrose Broth (Difco), and a fungal solution of Malassezia furfur IFO-0656 was 100-fold diluted with MU medium to give each inoculum (2×10^4 cells/mL). • Measurement of MIC of Trichophyton fungi: Sabouraud Dextrose Broth (Difco) was dispensed by 100 μL to a given well of a 96 well flat microplate. Then, a test compound solution (2 μL) was added, and the mixture was thoroughly mixed with a plate mixer. A fungal solution (100 μL) was inoculated and cultured at 30° C. for 7 days. The presence or absence of the cell growth was visually observed, and the minimum medicament concentration at which the cell growth was prevented was taken as MIC (μg/mL). • Measurement of MIC of Malassezia furfur: Since the urease activity of this fungus and the fungus growth rate are co-related, MIC was evaluated by the following method using urease activity as an index. MU medium was dispensed by 100 μL to a given well of a 96 well flat microplate. Then, a test compound solution (2 μL) was added, and the mixture was thoroughly mixed with a plate mixer. A fungal solution (100 μL) was inoculated and cultured at 30° C. The culture was stopped on day 4 or 5 of culture when the color tone of the MU medium changes from yellow to red in visual observation of the fungus growth in a well free of addition of a test substance. Then the plate was stirred until the fungus became uniform, and the urease activity was measured based on the measurement of absorbance at 550 nm using a plate reader.

[2] = tested on: Malassezia furfur IFO-0656; test: Antifungal activity evaluation test, MIC by urease activity, Malassezia furfur IFO-0656; format: cell-based; settings: IFO0656, 96 h, MU medium, 30° C., day 4 or 5, urease activity of 20% or below, read-out: MIC M. fur. IFO-0656
Method: as §1

[3] = tested on: Trichophyton rubrum KD-107; test: Antifungal activity evaluation test, MIC, Trichophyton rubrum KD-107; format: cell-based; settings: KD107, 168 h, Sabouraud Dextrose Broth, 30° C., 7 days, visual, read-out: MIC T. rub. KD-107
Method: as §1

[4] = tested on: Trichophyton mentagrophytes KD-04; test: Influence of keratin addition on anti-Trichophyton activity; format: cell-based; settings: Trichophyton mentagrophytes, KD04, 168 h, 30° C., 7 days
Method: The MIC increase rate by the addition of keratin to a medium was measured by the following procedure. • Test compound solution: A test compound was dissolved in dimethyl sulfoxide (DMSO) at a concentration of 5 mg/mL as a stock solution. Diluting this solution with DMSO, a 2-fold dilution series was prepared. • Test strain: Trichophyton mentagrophytes KD-04 was used. Preparation of Fungal Inoculum: the Above-Mentioned Strain was suspended in 0.05% Tween 80-containing physiological saline, and adjusted to a fungus concentration of 2×10^6 cells/mL using a counting chamber. […] The physiological saline was removed, and the mixture was further washed once with physiological saline (3 mL). The physiological saline was removed, and a test compound solution (10 μL) and Sabouraud Dextrose Broth (Difco) (500 μL) were added to keratin, and the mixture was sufficiently stirred. Then, inoculum (500 μL) of T. mentagrophytes KD-04 was added, and the mixture was cultured at 30° C. for 7 days. As a comparison control, an experiment similar to the above was performed under conditions free of keratin addition.

[5] = tested on: Trichophyton mentagrophytes SM-110; test: Antifungal activity evaluation test, MIC, Trichophyton mentagrophytes SM-110; format: cell-based; settings: SM110, 168 h, Sabouraud Dextrose Broth, 30° C., 7 days, visual, read-out: MIC T. men. SM-110
Method: as §1

[6] = tested on: Trichophyton rubrum KD-101; test: Antifungal activity evaluation test, MIC, Trichophyton rubrum KD-101; format: cell-based; settings: KD101, 168 h, Sabouraud Dextrose Broth, 30° C., 7 days, visual, read-out: MIC T. rub. KD-101
Method: as §1

OVA-induced dermatitis = test: Ovalbumin (OVA)-induced dermatitis model, ear edema; format: in vivo, male ICR mouse; parameters: key: ratio of compound's ear edema inhibition rate to FK506's (FK506 = 1.0); settings: test compound 1 w/v % (FK506 0.1 w/v %), 20 μL applied to auricle, 24 hours after induction
Method: (§2) The test compound was adjusted to 1 w/v % when in use with a solvent (acetone:olive oil=1:1, v/v)) and put to use. FK506 (control substance) was adjusted to 0.1 w/v % and used.
Male ICR mouse was sensitized by the administration of 0.2 mL of OVA-hydroxide aluminum gel suspension to the abdominal cavity. After 14 days from the sensitization, the thickness of the right auricle was measured with a micrometer (pre-value). After the measurement, 20 μL of 0.5 μg/mL OVA challenge liquid (solvent was physiological saline) was subcutaneously administered to the inside of the auricle to induce ear edema. About 5 minutes after the administration of the challenge liquid, 20 μL of the test compound was applied to the outside of the auricle. After 24 hours from the induction of ear edema, the thickness of the right auricle was measured by a method similar to the pre-value (post-value). The difference between the post-value and the pre-value of ear edema by each test compound was determined, based on which the inhibition rate was calculated. The activity of each test compound was calculated with the ear edema inhibition rate of FK506 as 1.0 (ear edema inhibition rate of each test compound/ear edema inhibition rate of FK506).

TNCB-induced dermatitis = test: 2,4,6-Trinitrochlorobenzene (TNCB)-induced dermatitis model, ear edema; format: in vivo, male BALB/c mouse; settings: test compound 1 w/v % (FK506 0.1 w/v %), 20 μL applied to auricle, 24 hours after induction
Method: as §2
The fur on the abdomen of male BALB/c mouse was shaved with a hair clipper, and 100 μL of 7 w/v % TNCB sensitizing liquid (solvent was acetone:olive oil=4:1, v/v) was applied. Six days after the sensitization, the thickness of the right auricle was measured with a micrometer (pre-value). After the measurement, 10 μL of 1 w/v % TNCB challenge liquid (solvent was acetone:olive oil=1:9, v/v) was applied to the inside of the right auricle to induce ear edema. About 5 minutes after the application of the challenge liquid, 20 μL of the test compound was applied to the outside of the auricle.
After 24 hours from the induction of ear edema, the thickness of the right auricle was measured by a method similar to the pre-value (post-value). The difference between the post-value and the pre-value of ear edema by each test compound was determined, based on which the inhibition rate was calculated. The activity of each test compound was calculated with the ear edema inhibition rate of FK506 as 1.0 (ear edema inhibition rate of each test compound/ear edema inhibition rate of FK506).

[7] = T. mentagrophytes KD-04, free of keratin addition, read-out: MIC SDB alone
[8] = T. mentagrophytes KD-04, keratin 50 mg added, read-out: MIC SDB + keratin

| Compound | MIC [1] [µg/mL] | MIC [2] [µg/mL] | MIC [3] [µg/mL] | MIC [4, 7] [µg/mL] | MIC [4, 8] [µg/mL] | MIC [5] [µg/mL] | MIC [6] [µg/mL] | OVA-induced dermatitis, with ear edema inhibition rate of FK506 as 1.0 (OVA-induced dermatitis) | TNCB-induced dermatitis, with ear edema inhibition rate of FK506 as 1.0 (TNCB-induced dermatitis) |
| --- | --- | --- | --- | --- | --- | --- | --- | --- | --- |
| CCc1ccccc1C(=NN(C)C)n1ccnc1 [Compound No. 4, N′-[1-(2-ethylphenyl)-1-imidazol-1-ylmethylidene]-N,N-dimethylhydrazine] | 0.39 (≈ 1.61 µM) | > 25 | 0.78 (≈ 3.22 µM) | 0.39 (≈ 1.61 µM) | 0.78 | 0.78 (≈ 3.22 µM) | 0.78 (≈ 3.22 µM) |  |  |
| CCCCCCc1ccccc1C(=NN(C)C)n1ccnc1 [Compound No. 5, N′-[1-(2-hexylphenyl)-1-imidazol-1-ylmethylidene]-N,N-dimethylhydrazine] |  |  |  |  |  |  |  | 1.2 | 0.6 |
| CCOc1ccccc1C(=NN(C)C)n1ccnc1 [Compound No. 16, N′-[1-(2-ethoxyphenyl)-1-imidazol-1-ylmethylidene]-N,N-dimethylhydrazine] | 0.2 (≈ 0.774 µM) | 12.5 (≈ 48.4 µM) | 0.2 (≈ 0.774 µM) | 0.39 (≈ 1.51 µM) | 0.39 | 0.39 (≈ 1.51 µM) | 0.2 (≈ 0.774 µM) |  |  |
| CCCOc1ccccc1C(=NN(C)C)n1ccnc1 [Compound No. 17, N′-[1-imidazol-1-yl-1-(2-propoxyphenyl)methylidene]-N,N-dimethylhydrazine] | 0.2 (≈ 0.734 µM) | 3.13 (≈ 11.5 µM) | 0.2 (≈ 0.734 µM) | 0.05 (≈ 0.184 µM) | 0.1 | 0.39 (≈ 1.43 µM) | 0.2 (≈ 0.734 µM) |  |  |
| C=CCOc1ccccc1C(=NN(C)C)n1ccnc1 [Compound No. 20, N′-[1-(2-allyloxyphenyl)-1-imidazol-1-ylmethylidene]-N,N-dimethylhydrazine] | 0.2 (≈ 0.74 µM) | 12.5 (≈ 46.2 µM) | 0.1 (≈ 0.37 µM) | 0.1 (≈ 0.37 µM) | 0.2 | 0.39 (≈ 1.44 µM) | 0.1 (≈ 0.37 µM) |  |  |
| C/C=C\Oc1ccccc1C(=NN(C)C)n1ccnc1 [Compound No. 21, N′-[1-imidazol-1-yl-1-(2-(Z)-propenyloxyphenyl)methylidene]-N,N-dimethylhydrazine] | 0.2 (≈ 0.74 µM) | 6.25 (≈ 23.1 µM) | 0.2 (≈ 0.74 µM) | 0.2 (≈ 0.74 µM) | 0.2 | 0.39 (≈ 1.44 µM) | 0.2 (≈ 0.74 µM) |  |  |
| CCCCOc1ccccc1C(=NN(C)C)n1ccnc1 [Compound No. 23, N′-[1-(2-butoxyphenyl)-1-imidazol-1-ylmethylidene]-N,N-dimethylhydrazine] | 0.1 (≈ 0.349 µM) | 0.39 (≈ 1.36 µM) | 0.1 (≈ 0.349 µM) | 0.1 (≈ 0.349 µM) | 0.2 | 0.2 (≈ 0.698 µM) | 0.1 (≈ 0.349 µM) |  |  |
| CN(C)N=C(c1ccccc1OC(F)(F)F)n1ccnc1 [Compound No. 32, N′-[1-imidazol-1-yl-1-(2-trifluoromethoxyphenyl)methylidene]-N,N-dimethylhydrazine] | 0.2 (≈ 0.671 µM) | 6.25 (≈ 21 µM) | 0.39 (≈ 1.31 µM) | 0.1 (≈ 0.335 µM) | 0.2 | 0.78 (≈ 2.62 µM) | 0.39 (≈ 1.31 µM) |  |  |
| CN(C)N=C(c1ccccc1OC(F)(F)C(F)F)n1ccnc1 [Compound No. 33, N′-[1-imidazol-1-yl-1-[2-(1,1,2,2-tetrafluoroethoxy)phenyl]methylidene]-N,N-dimethylhydrazine] | 0.78 (≈ 2.36 µM) | 6.25 (≈ 18.9 µM) | 0.39 (≈ 1.18 µM) | 0.39 (≈ 1.18 µM) | 0.39 | 1.56 (≈ 4.72 µM) | 0.78 (≈ 2.36 µM) |  |  |
| CN(C)N=C(c1ccccc1OCCc1ccc(N(C)C)cc1)n1ccnc1 [Compound No. 60, N′-[1-imidazol-1-yl-1-[2-(4-dimethylaminophenethyloxy)phenyl]methylidene]-N,N-dimethylhydrazine] | 0.2 (≈ 0.53 µM) | 0.2 (≈ 0.53 µM) | 0.1 (≈ 0.265 µM) | 0.1 (≈ 0.265 µM) | 0.2 | 0.39 (≈ 1.03 µM) | 0.2 (≈ 0.53 µM) |  |  |
| COc1ccc(OCCOc2ccccc2C(=NN(C)C)n2ccnc2)cc1 [Compound No. 69, N′-[1-imidazol-1-yl-1-[2-[2-(4-methoxyphenoxy)ethoxy]phenyl]methylidene]-N,N-dimethylhydrazine] | 0.2 (≈ 0.526 µM) | 1.56 (≈ 4.1 µM) | 0.05 (≈ 0.131 µM) | 0.2 (≈ 0.526 µM) | 0.39 | 0.39 (≈ 1.03 µM) | 0.05 (≈ 0.131 µM) |  |  |
| CCSc1ccccc1C(=NN(C)C)n1ccnc1 [Compound No. 80, N′-[1-(2-ethylthiophenyl)-1-imidazol-1-ylmethylidene]-N,N-dimethylhydrazine] | 0.2 (≈ 0.729 µM) | 12.5 (≈ 45.6 µM) | 0.39 (≈ 1.42 µM) | 0.78 (≈ 2.84 µM) | 0.78 | 0.78 (≈ 2.84 µM) | 0.39 (≈ 1.42 µM) |  |  |
| CCCSc1ccccc1C(=NN(C)C)n1ccnc1 [Compound No. 81, N′-[1-imidazol-1-yl-1-(2-propylthiophenyl)methylidene]-N,N-dimethylhydrazine] | 0.2 (≈ 0.693 µM) | 3.13 (≈ 10.9 µM) | 0.2 (≈ 0.693 µM) | 0.39 (≈ 1.35 µM) | 0.39 | 0.39 (≈ 1.35 µM) | 0.39 (≈ 1.35 µM) |  |  |
| CN(C)N=C(c1cccn1Cc1ccccc1)n1ccnc1 [Compound No. 105, N′-[1-(1-benzylpyrrol-2-yl)-1-imidazol-1-ylmethylidene]-N,N-dimethylhydrazine] | 0.2 (≈ 0.682 µM) | 25 (≈ 85.2 µM) | 0.2 (≈ 0.682 µM) | 0.39 (≈ 1.33 µM) | 0.78 | 0.39 (≈ 1.33 µM) | 0.2 (≈ 0.682 µM) |  |  |
| CCC(C)n1ncn(-c2ccc(N3CCN(c4ccc(OCC5COC(Cn6cncn6)(c6ccc(Cl)cc6Cl)O5)cc4)CC3)cc2)c1=O (stereo not shown) [ITCZ, itraconazole, reference compound] | 0.1 (≈ 0.142 µM) | 0.05 (≈ 0.0709 µM) | 0.05 (≈ 0.0709 µM) | 0.05 (≈ 0.0709 µM) | 25 | 0.2 (≈ 0.283 µM) | 0.1 (≈ 0.142 µM) |  |  |
